This passage reports change in vivo and IC50 results from US20040192771A1, “Ether compounds and compositions for cholesterol management and related uses” (priority 2001, published 2004).

Where two headings read alike, the source gives them in different places.

In one experiment the test system is obese female Zucker rats. The experiment is described as follows: Oral daily treatment of obese female Zucker rats for fourteen days; serum lipids and glycemic control indicators. Type of experiment: in vivo. To be noted: Rattus norvegicus, percent change from study prebleed; for change in vivo at 100 mg/kg/day: 100 mg/kg/day oral; for change in vivo at 30 mg/kg/day: 30 mg/kg/day oral. As to the method: In a number of different experiments, illustrative compounds of the invention are administered daily at a dose of up to 100 mg/kg to chow fed obese female Zucker rats for fourteen days in the morning by oral gavage in 1.5% carboxymethylcellulose/0.2% Tween 20 or 20% ethanol/80% polyethylene glycol (dosing vehicles). Animals are weighed daily. Animals are allowed free access to rodent chow and water throughout the study except on days of blood sampling where food is restricted for six hours prior to blood sampling. Blood glucose is determined after the 6 hour fast in the afternoon without anesthesia from a tail vein. Serum is also prepared from pretreatment blood samples subsequently obtained from the orbital venous plexus (with O2/CO2 anesthesia) and following the fourteenth dose at sacrifice from the heart following O2/CO2 anesthesia. Serums are assayed for lipoprotein cholesterol profiles, triglycerides, total cholesterol, Non HDL cholesterol, HDL cholesterol, the ratio of HDL cholesterol to that of Non HDL cholesterol, insulin, non esterified fatty acids, and beta hydroxy butyric acid. The percent body weight gain and the ratio of liver to body weight is also determined. These are shown as absolute values or as a percent change of the pretreatment values in Table C. [drawing 479] [drawing 480]

The test system of another experiment is primary rat hepatocytes. The experiment is described as follows: Inhibition of lipid synthesis ([1-14C]-acetate incorporation) in primary cultures of rat hepatocytes. Particulars: Hepatocyte, total lipid synthesis, 4 hours incubation. Type of experiment: cell-based. As for the experimental part:
Compounds were tested for inhibition of lipid synthesis in primary cultures of rat hepatocytes. Male Sprague-Dawley rats were anesthetized with intraperitoneal injection of sodium pentobarbital (80 mg/kg). Rat hepatocytes were isolated essentially as described by the method of Seglen (Seglen, P. O. Hepatocyte suspensions and cultures as tools in experimental carcinogenesis. J. Toxicol. Environ. Health 1979, 5, 551-560). Hepatocytes were suspended in Dulbecco's Modified Eagles Medium containing 25 mM D-glucose, 14 mM HEPES, 5 mM L-glutamine, 5 mM leucine, 5 mM alanine, 10 mM lactate, 1 mM pyruvate, 0.2% bovine serum albumin, 17.4 mM non-essential amino acids, 20% fetal bovine serum, 100 nM insulin and 20 μg/mL gentamycin) and plated at a density of 1.5×10^5 cells/cm^2 on collagen-coated 96-well plates. Four hours after plating, media was replaced with the same media without serum. Cells were grown overnight to allow formation of monolayer cultures. Lipid synthesis incubation conditions were initially assessed to ensure the linearity of [1-^14C]-acetate incorporation into hepatocyte lipids for up to 4 hours. Hepatocyte lipid synthesis inhibitory activity was assessed during incubations in the presence of 0.25 μCi [1-^14C]-acetate/well (final radiospecific activity in assay is 1 Ci/mol) and 0, 1, 3, 10, 30, 100 or 300 μM of compounds for 4 hours. At the end of the 4-hour incubation period, medium was discarded and cells were washed twice with ice-cold phosphate buffered saline and stored frozen prior to analysis. To determine total lipid synthesis, 170 μl of MicroScint-E® and 50 μl water was added to each well to extract and partition the lipid soluble products to the upper organic phase containing the scintillant. Lipid radioactivity was assessed by scintillation spectroscopy in a Packard TopCount NXT.

The mark [1] stands for this setting: 168 h, week 1, read-out: Glucose.
Setting [2] is: 168 h, week 1, read-out: Insulin.
[3] abbreviates: 168 h, week 1, read-out: Non-HDL-C.
Where [4] appears, read: 336 h, week 2, read-out: Glucose.
Where [5] appears, read: 336 h, week 2, read-out: Insulin.
Setting [6] is: 336 h, week 2, read-out: Non-HDL-C.

Consider `CC(CO)(CCCOCCCC(C)(CO)c1ccccc1)c1ccccc1` (stereo not shown) [Compound 110, 5-(5-Hydroxy-4-methyl-4-phenylpentyloxy)-2-methyl-2-phenylpentan-1-ol], for which the change in vivo at 100 mg/kg/day with obese female Zucker rats (setting [1]) is 12%; in the experiment on obese female Zucker rats (168 h, week 1, read-out: HDL-C) it was 7%; in the experiment with obese female Zucker rats (setting [2]), -2%; with obese female Zucker rats (setting [3]) it was -32%; in the experiment with obese female Zucker rats (168 h, week 1, read-out: TC) it was -4%; in the experiment on obese female Zucker rats (168 h, week 1, read-out: TG), -27%. In addition, the change in vivo at 100 mg/kg/day in the experiment on obese female Zucker rats (setting [4]) is 10%; in the experiment on obese female Zucker rats (336 h, week 2, read-out: HDL-C) it was 5%; in the experiment with obese female Zucker rats (setting [5]), -6%; with obese female Zucker rats (setting [6]), -26%; with obese female Zucker rats (336 h, week 2, read-out: TC), -4%; in the experiment on obese female Zucker rats (336 h, week 2, read-out: TG) it was -18%. Also, in the experiment with primary rat hepatocytes, it took 143 µM to reach half-maximal inhibition (IC50).
For `CC(CO)(CCCCOCCCCC(C)(CO)c1ccccc1)c1ccccc1` (stereo not shown) [Compound 111, 6-(6-Hydroxy-5-methyl-5-phenylhexyloxy)-2-methyl-2-phenylhexan-1-ol], the change in vivo at 30 mg/kg/day with obese female Zucker rats (168 h, week 1, read-out: HDL-C) was -4%; with obese female Zucker rats (setting [2]), -37%; in the experiment with obese female Zucker rats (setting [3]), -33%; in the experiment with obese female Zucker rats (168 h, week 1, read-out: TC), -17%; in the experiment with obese female Zucker rats (168 h, week 1, read-out: TG), -14%; with obese female Zucker rats (setting [4]), -18%. For the same compound, the change in vivo at 30 mg/kg/day with obese female Zucker rats (336 h, week 2, read-out: HDL-C) was -28%; with obese female Zucker rats (setting [5]), -36%; in the experiment with obese female Zucker rats (setting [6]), -1%; with obese female Zucker rats (336 h, week 2, read-out: TC), -20%; in the experiment with obese female Zucker rats (336 h, week 2, read-out: TG), -7%. Besides, the IC50 – broadly, the concentration at which inhibition is half-maximal – in the experiment on primary rat hepatocytes was 106 µM.
As for `CC(C)(CCCCOCCCCC(C)(C)COC1CCCCO1)COC1CCCCO1` (stereo not shown) [Compound 122, 2-{6-[5,5-Dimethyl-6-(tetrahydropyran-2-yloxy)-hexyloxy]-2,2-dimethylhexyloxy}-tetrahydropyran], the change in vivo at 100 mg/kg/day was -7% with obese female Zucker rats (setting [1]); 43% in the experiment on obese female Zucker rats (168 h, week 1, read-out: HDL-C); -18% in the experiment on obese female Zucker rats (setting [2]); 46% in the experiment on obese female Zucker rats (setting [3]); 42% in the experiment with obese female Zucker rats (168 h, week 1, read-out: TC); -1% with obese female Zucker rats (168 h, week 1, read-out: TG). Besides, the change in vivo at 100 mg/kg/day was 9% in the experiment on obese female Zucker rats (setting [4]); 79% in the experiment on obese female Zucker rats (336 h, week 2, read-out: HDL-C); -20% in the experiment on obese female Zucker rats (setting [5]); 92% with obese female Zucker rats (setting [6]); 79% in the experiment on obese female Zucker rats (336 h, week 2, read-out: TC); 22% in the experiment with obese female Zucker rats (336 h, week 2, read-out: TG). Moreover, in the experiment with primary rat hepatocytes, half-maximal inhibition (IC50) was put at 20 µM.
Turning to `CC(C)(CO)CCCCOCCCC(C)(C)CO` [Compound 126, 6-(5-Hydroxy-4,4-dimethylpentyloxy)-2,2-dimethylhexan-1-ol], the change in vivo at 100 mg/kg/day is 68% with obese female Zucker rats (setting [1]); 630% in the experiment with obese female Zucker rats (168 h, week 1, read-out: HDL-C); 240% in the experiment with obese female Zucker rats (setting [2]); -28% in the experiment on obese female Zucker rats (setting [3]); 119% with obese female Zucker rats (168 h, week 1, read-out: TC); -63% with obese female Zucker rats (168 h, week 1, read-out: TG). The change in vivo at 100 mg/kg/day was 9% with obese female Zucker rats (setting [4]); 786% with obese female Zucker rats (336 h, week 2, read-out: HDL-C); 145% in the experiment on obese female Zucker rats (setting [5]); -17% with obese female Zucker rats (setting [6]); 161% with obese female Zucker rats (336 h, week 2, read-out: TC); -58% in the experiment on obese female Zucker rats (336 h, week 2, read-out: TG). The compound further registered a concentration for half-maximal inhibition (IC50) in the experiment with primary rat hepatocytes of 17 µM.
For `CC(CO)(CCCCOCCCC(C)(CO)c1ccccc1)c1ccccc1` (stereo not shown) [Compound 127, 6-(5-Hydroxy-4-methyl-4-phenylpentyloxy)-2-methyl-2-phenylhexan-1-ol], the change in vivo at 30 mg/kg/day with obese female Zucker rats (setting [1]) is 5%; in the experiment on obese female Zucker rats (168 h, week 1, read-out: HDL-C), -2%; in the experiment with obese female Zucker rats (setting [2]) it was 3%; with obese female Zucker rats (168 h, week 1, read-out: TC), 3%; in the experiment with obese female Zucker rats (168 h, week 1, read-out: TG), 0%; in the experiment on obese female Zucker rats (setting [4]), -3%. Further, the change in vivo at 30 mg/kg/day with obese female Zucker rats (336 h, week 2, read-out: HDL-C) is -20%; in the experiment with obese female Zucker rats (setting [5]) it was 0%; with obese female Zucker rats (setting [6]) it was 45%; in the experiment on obese female Zucker rats (336 h, week 2, read-out: TC), 2%; in the experiment with obese female Zucker rats (336 h, week 2, read-out: TG) it was 21%.
Take `CC(C)(CO)CCCCOCCCCC(C)(C)CO` [Compound 128, 6-(6-Hydroxy-5,5-dimethylhexyloxy)-2,2dimethylhexan-1-ol]: the change in vivo at 30 mg/kg/day is 2% in the experiment with obese female Zucker rats (setting [1]); 174% in the experiment on obese female Zucker rats (168 h, week 1, read-out: HDL-C); 48% in the experiment with obese female Zucker rats (setting [2]); -14% in the experiment with obese female Zucker rats (setting [3]); 131% with obese female Zucker rats (168 h, week 1, read-out: TC); -52% in the experiment on obese female Zucker rats (168 h, week 1, read-out: TG). Besides, the change in vivo at 30 mg/kg/day with obese female Zucker rats (setting [4]) was 44%; in the experiment with obese female Zucker rats (336 h, week 2, read-out: HDL-C) it was 349%; with obese female Zucker rats (setting [5]) it was 48%; with obese female Zucker rats (setting [6]), 59%; with obese female Zucker rats (336 h, week 2, read-out: TC), 224%; with obese female Zucker rats (336 h, week 2, read-out: TG), -39%. The compound further yielded a concentration for half-maximal inhibition (IC50) with primary rat hepatocytes of 10 µM.
Take `CC(C)(CO)CCCCOCCCCC(C)(CO)c1ccccc1` (stereo not shown) [Compound 129, 6-(6-Hydroxy-5-methyl-5-phenylhexyloxy)-2,2-dimethyl-hexan-1-ol]: the change in vivo at 100 mg/kg/day in the experiment on obese female Zucker rats (setting [1]) was 14%; with obese female Zucker rats (168 h, week 1, read-out: HDL-C), 26%; in the experiment with obese female Zucker rats (setting [2]) it was 2%; in the experiment on obese female Zucker rats (setting [3]), -55%; in the experiment with obese female Zucker rats (168 h, week 1, read-out: TC), -6%; with obese female Zucker rats (168 h, week 1, read-out: TG) it was -61%. For the same compound, the change in vivo at 100 mg/kg/day in the experiment with obese female Zucker rats (setting [4]) is 4%; in the experiment with obese female Zucker rats (336 h, week 2, read-out: HDL-C), 52%; with obese female Zucker rats (setting [5]) it was 6%; in the experiment with obese female Zucker rats (setting [6]), -13%; in the experiment with obese female Zucker rats (336 h, week 2, read-out: TC), 26%; in the experiment with obese female Zucker rats (336 h, week 2, read-out: TG), -45%. Besides, the IC50 in the experiment on primary rat hepatocytes was determined as 4.7 µM.
As for `CC(C)(CO)CCCOCCOCCCC(C)(C)CO` [Compound 149, 5-[2-(5-Hydroxy-4,4-dimethylpentyloxy)-ethoxy]-2,2-dimethylpentan-1-ol], the change in vivo at 30 mg/kg/day in the experiment on obese female Zucker rats (setting [1]) was -20%; with obese female Zucker rats (168 h, week 1, read-out: HDL-C), 37%; with obese female Zucker rats (setting [2]), -40%; with obese female Zucker rats (setting [3]), -48%; in the experiment with obese female Zucker rats (168 h, week 1, read-out: TC), -7%; with obese female Zucker rats (168 h, week 1, read-out: TG), -37%. For the same compound, the change in vivo at 30 mg/kg/day in the experiment on obese female Zucker rats (setting [4]) was -27%; with obese female Zucker rats (336 h, week 2, read-out: HDL-C) it was 17%; with obese female Zucker rats (setting [5]) it was -26%; with obese female Zucker rats (setting [6]) it was -27%; in the experiment on obese female Zucker rats (336 h, week 2, read-out: TC), -7%; with obese female Zucker rats (336 h, week 2, read-out: TG), -30%.
